In US10640507B2, “PBD antibacterial agents” (KING'S COLLEGE LONDON, priority 2015, dated 2020) one finds MIC data, which are given here for two compounds.

One assay concerns A. baumannii ADP1. Kind of assay: General MIC protocol, Gram negative. It is filed as cell-based. To be noted: Acinetobacter baumannii. An outline of the steps: (§1)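 Broth microdilution in tryptic soy broth used two-fold serial dilutions from a top final concentration of 32 μg/ml and a starting inoculum of 5×10^5 bacteria/ml. Plates stood 20 h at 37 °C unless specified elsewhere. Growth was judged by OD600.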

A further assay deals with A. baumannii UKA7. Kind of assay: General MIC protocol, Gram negative. It is filed as cell-based. As to conditions: Acinetobacter baumannii. An outline of the steps:
as §1

For the next assay, the system named is A. baumannii NCTC 13424. Kind of assay: General MIC protocol, Gram negative. It is filed as cell-based. As to conditions: Acinetobacter baumannii, NCTC13424. An outline of the steps: as §1
A further assay concerns K. pneumonia NCTC 46704. Kind of assay: General MIC protocol, Gram negative. It is filed as cell-based. To be noted: Klebsiella pneumoniae, NCTC46704. An outline of the steps: as §1
A further assay has as its system B. cepacia NCTC 10743. Kind of assay: General MIC protocol, Gram negative. It is filed as cell-based. To be noted: Burkholderia cepacia, NCTC10743. In a few lines:
as §1

Assay [1] relates to B. cepacia CEP509 (LMG 18821). Kind of assay: General MIC protocol, Gram negative. It is filed as cell-based. To be noted: Burkholderia cepacia, LMG18821. An outline of the steps:
as §1

The next assay deals with A. baumannii W1. Kind of assay: General MIC protocol, Gram negative. It is filed as cell-based. To be noted: Acinetobacter baumannii. In a few lines:
as §1

For a further assay, the system named is B. cenocepa K56-2. Kind of assay: General MIC protocol, Gram negative. It is filed as cell-based. In a few lines: as §1
For assay [2], the system named is resistant mutants of KP 13368. Kind of assay: MIC following resistance development. It is filed as cell-based, Klebsiella. To be noted: Klebsiella, OFKP13368, read-out: MIC of resistant mutants (in brackets). The method, then:
(§2) General Minimum Inhibitory Concentration (MIC) Protocol
(§3) 1. Grow up cultures of bacterial strains to be tested overnight.
(§4) 2. Dilute down overnight cultures to concentration of 1×10^6 bacteria/ml (OD0.01) in Tryptic soy broth (TSB).
(§5) 3. Add 100 μl of TSB media to column 2-column 12 in 96 well plate (keeping column 1 clear).
(§6) 4. Make up compound to a concentration of 64 μg/ml in water (or alternatively to twice the chosen maximum concentration to be tested).
(§7) 5. Add 100 μl of antibiotic solution to the 1st and 2nd columns.
(§8) 6. Using a multichannel pipette take 100 μl from the 2nd column wells and pipette into 3rd column wells and repeat down the 96 well plate (remembering to include controls i.e. uninfected media and media with no antibiotic).
(§9) 7. To each well (except uninfected control row H) add 100 μl of bacterially infected media at a concentration of 1×10^6/ml.
(§10) 8. This dilutes down the concentration of the antibiotic by half (top dose is therefore 32 μg/ml in column 1) and also gives you a starting bacterial concentration of 5×10^5/ml.
(§11) 9. Wrap plate with parafilm to prevent evaporation.
(§12) 10. Leave at desired temperature (37° C. unless specified elsewhere) for 20 hours.
(§13) 11. Next day check plates for growth and measure optical density (i.e. absorbance) at a wavelength of 600 nm (OD600).
(§14) An example of such a plate is shown in FIG. 1 where column A represents wells that receive the top dose 100 μl; column B represents wells that receive the top dose 100 μl+100 μl TSB; and column C represents wells that receive 100 μl TSB. Row H which is marked by a box labelled D represents a blank where the cells receive no bacteria.
(§15) The MIC of PP-A418 and colistin against the strains used in the time kill analysis of Example 31 following resistance development were measured. The MIC was measured using the general MIC protocol given above. The results are given in Table 14 below where the MIC values of resistant mutants are shown in the brackets.

In assay [3] the test system is resistant mutants of KP 16. Kind of assay: MIC following resistance development. It is filed as cell-based, Klebsiella. As to conditions: Klebsiella, OFKP16, read-out: MIC of resistant mutants (in brackets). The method, then: as §2, §3, §4, §5, §6, §7, §8, §9, §10, §11, §12, §13, §14, §15
Assay [4] relates to resistant mutants of KP 13438. Kind of assay: MIC following resistance development. It is filed as cell-based, Klebsiella. As to conditions: Klebsiella, OFKP13438, read-out: MIC of resistant mutants (in brackets). The method, then:
as §2, §3, §4, §5, §6, §7, §8, §9, §10, §11, §12, §13, §14, §15

≈ marks a conversion by molar mass, not a printed value. A value given as a limit tells only on which side of the number the result lay.

Broadly, the MIC is the lowest concentration that inhibits growth of the organism. For `COc1cc2c(cc1OCCCC(=O)Nc1cc(C(=O)Nc3ccc4sc(C(=O)N(C)C)cc4c3)n(C)c1)N=C[C@@H]1CCCN1C2=O` [KMR-14-33, (S)—N-(2-(dimethylcarbamoyl)benzo[b]thiophen-5-yl)-4-(4-((7-methoxy-5-oxo-2,3,5,11a-tetrahydro-1H-benzo[e]pyrrolo[1,2-a][1,4]-diazepin-8-yl)oxy)butanamido)-1-methyl-1H-pyrrole-2-carboxamide], the MIC was 0.125 µg/mL (≈ 0.19 µM) in the assay with A. baumannii ADP1; 0.5 µg/mL (≈ 0.761 µM) against A. baumannii UKA7; 0.5 µg/mL (≈ 0.761 µM) against A. baumannii NCTC 13424; 1 µg/mL (≈ 1.52 µM) in the assay on K. pneumonia NCTC 46704; 1 to 2 µg/mL (≈ 1.52 to 3.05 µM) against B. cepacia NCTC 10743; 2 µg/mL (≈ 3.05 µM) in [1]. In addition, the results for the MIC in the assay on A. baumannii W1 and in the assay on B. cenocepa K56-2 were 1 µg/mL (≈ 1.52 µM) and 2 µg/mL (≈ 3.05 µM), respectively.

`COc1cc2c(cc1OCCCC(=O)Nc1cc(C(=O)Nc3ccc4oc(C(=O)N5CCSCC5)cc4c3)n(C)c1)N=C[C@@H]1CCCN1C2=O` [PP-A148, (S)-4-(4-((7-methoxy-5-oxo-2,3,5,11a-tetrahydro-1H-benzo-[e]pyrrolo[1,2-a][1,4]diazepin-8-yl)oxy)butanamido)-1-methyl-N-(2-(thiomorpholine-4-carbonyl)benzofuran-5-yl)-1H-pyrrole-2-carboxamide]: the MIC in assay [2] is above 128 µg/mL; in assay [3], 4 to 8 µg/mL; in assay [4], 64 µg/mL.
